From publication PMC11478334, “Quaternized Curcumin Derivative—Synthesis, Physicochemical Characteristics, and Photocytotoxicity, Including Antibacterial Activity after Irradiation with Blue Light” (Molecules, 2024) come the findings set out here.

Usually IC50 stands for the concentration that inhibits the measured activity by half.

Where two headings read alike, the source gives them in different places.

What all share (experiment): MTT cell viability assay
In general terms: Tetrazolium assays rely on reduction of a dye to a coloured formazan, in cell work by metabolically active cells.

Test [1] relates to WM115—melanoma (high-melanotic). It is filed as cell-based. On the procedure: (§1) To determine the toxicity of the tested compounds against normal and tumor cells, a cell viability assay was performed using MTT dye. The following cell lines were used: PHDF—primary human dermal fibroblasts, MRC-5—lung fibroblasts, WM266-4—melanoma, and WM115—melanoma. Whenever possible, the IC50 value was calculated for each cell line. The IC50 results are reported in Table 9, while Figure 14 presents graphs illustrating the dependence of cell viability on the concentration of the tested compounds.
(§2) In order to analyze the cytotoxic effect of curcumin and compounds 2 and 3, different cell lines were used: PHDF—primary human dermal fibroblasts, MRC-5—lung fibroblasts, WM266-4—melanoma (low-melanotic), and WM115—melanoma (high-melanotic). All cell lines were seeded onto 96-well flat-bottom plates at a concentration of 15,000 cells/well. Curcumin (1) and compounds 2 and 3 were dissolved in the completed culture medium at the final concentrations of 5 µM, 10 µM, 20 µM, 30 µM, 40 µM, and 50 µM. The final volume of medium in each well was 200 µL. Cells which were not exposed to the tested compounds constituted a control group. After 24 h, each of the reagents was added to the cells. Control cells were not treated with synthesized reagents; they were incubated with a completed cell culture medium. The incubation of cells with 1, 2, or 3 lasted 24 and 48 h. Then, the medium was discarded, and the new medium containing MTT (3-(4,5-dimethylthiazol-2-yl)-2,5-diphenyltetrazolium bromide) (Affymetrix, Cleveland, OH, USA) at a final concentration of 0.5 mg/mL was added to the cell culture. Cells were incubated for 2.5 h in cell culture conditions. Next, the medium was removed, and 100 µL of DMSO (Thermo Scientific, Waltham, MA, USA) was added to dissolve the formed formazan crystals. The absorbance was read with a Multiskan plate reader at 570 nm and the background at 655 nm (Thermo Scientific, Waltham, MA, USA). The experiment was performed in triplicate.
(§3) PHDF cells were extracted from skin pieces collected following mastectomy procedures at the Greater Poland Cancer Centre in Poznań, Poland. Each time, informed patient agreement was acquired for the “The Cancer Genome Atlas (TCGA)” project to utilize biological material for scientific research purposes. […] The MRC-5, WM266-4, and WM115 cell lines were obtained from the American Type Culture Collection (ATCC). For culturing of the PHDF, WM266-4, and WM115 cell lines, the medium contained Dulbecco′s Modified Eagle′s Medium (DMEM) (Biowest, Nuaillé, France), 10% of fetal bovine serum (Biowest, Nuaillé, France), and 1% of penicillin/streptomycin agents (Merck Millipore, Darmstadt, Germany). Cells were incubated in a humidified incubator containing 5% CO2. The MRC-5 cell line was cultured similarly to the method described in our previous article. Briefly, cells were incubated at 37 °C in an atmosphere enriched with 5% CO2. The basic culture medium was Dulbecco’s Modified Eagle’s Medium (DMEM) (Biowest, Nuaillé, France) supplemented with 10% fetal bovine serum (FBS) (Biowest, Nuaillé, France) with the addition of 2 mM L-glutamine and 5% non-essential amino acid solution.

For test [2], the system named is WM266-4—melanoma (low-melanotic). It is filed as cell-based. On the procedure: as §1, §2, §3
Test [3] relates to PHDF—primary human dermal fibroblasts. In kind it is cell-based. On the procedure:
as §1, §2, §3

The next test concerns MRC-5—lung fibroblasts. It is filed as cell-based, human. On the procedure:
as §1, §2, §3

The mark [4] stands for this setting: 24 h incubation, read-out: IC50 24 h.
Where [5] appears, read: 48 h incubation, read-out: IC50 48 h (converted).
The mark [6] stands for this setting: Homo sapiens, Fibroblast, 24 h incubation, read-out: IC50 24 h.
Setting [7] is: Homo sapiens, Fibroblast, 48 h incubation, read-out: IC50 48 h.
The mark [8] stands for this setting: Homo sapiens, Fibroblast, 48 h incubation, read-out: IC50 48 h (converted).

For the compound `F[B-]1(F)OC(/C=C/c2ccc(OCCN3CCOCC3)cc2)=CC(/C=C/c2ccc(OCCN3CCOCC3)cc2)=[O+]1` [Compound 2], the IC50 is > 50 µM in test [1] (setting [4]); > 50 µM in test [1] (setting [5]); > 50 µM in test [2] (setting [4]); > 50 µM in test [2] (setting [5]); > 50 µM in test [3] (setting [6]); 28.4 µM in test [3] (setting [7]). Besides, the IC50 was > 50 µM with MRC-5—lung fibroblasts (setting [6]) and 3.8 µM in the test with MRC-5—lung fibroblasts (setting [8]).

Regarding `C[N+]1(CCOc2ccc(C=CC3=CC(C=Cc4ccc(OCC[N+]5(C)CCOCC5)cc4)=[O+][B-](F)(F)O3)cc2)CCOCC1` [Compound 3], the IC50 in test [1] (setting [4]), in test [1] (setting [5]), in test [2] (setting [4]), in test [2] (setting [5]), in test [3] (setting [6]) and in test [3] (setting [7]) was > 50 µM throughout. The concentration for half-maximal inhibition (IC50) in the test with MRC-5—lung fibroblasts (setting [6]) and with MRC-5—lung fibroblasts (setting [8]) was > 50 µM throughout.

As to Curcumin [reference compound], the IC50 is 39.5 ± 9.4 µM in test [1] (setting [4]); 18.1 µM in test [1] (setting [5]); 45 µM in test [2] (24 h incubation, listed as curcumin, read-out: IC50 24 h); 44.9 ± 10.7 µM in test [2] (setting [4]); 21 µM in test [2] (48 h incubation, listed as curcumin, read-out: IC50 48 h (converted)); 20.6 µM in test [2] (setting [5]). Besides, the 50% inhibitory concentration (IC50) in test [3] (setting [4]) was > 50 µM; in test [3] (48 h incubation, read-out: IC50 48 h) it was 24.6 µM; in the test on MRC-5—lung fibroblasts (setting [4]), 39.5 ± 8.8 µM; in the test with MRC-5—lung fibroblasts (setting [5]) it was 18.1 µM.
